Test results as given in patent US6566512B1, “ARV1, a protein involved in sterol uptake and sterol homeostasis in the budding yeast, S-cerevisiae, and a functional human ARV1” (The Trustees of Columbia University in the City of New York, priority 2000, dated 2003).

Tested on: arv1D cells
Test: Polyene (nystatin) sensitivity of arv1 deletion yeast, growth on plates
Type: cell-based, Saccharomyces cerevisiae
Conditions: for polyene sensitivity of yeast strains deleted for the ARV1 gene (arv1Δ): concentration not given
Method: FIGS. 1A-1C arv1 mutant phenotypes. FIG. 1A, Temperature and nystatin sensitivity. 5-fold dilutions of cells were grown as indicated for three days on YEPD +/−5 μg/ml nystatin (10 mg/ml in propylene glycol). FIG. 1B, Characterization of sterol levels. Cells were labeled with [^3H]acetate and lipids extracted and analyzed by TLC. Data from three independent assays of two strains of each genotype is expressed as mean ratio over wild-type (±SEM; statistical significance by paired t-tests, *p<0.05 or **p<0.01 compared to wild-type). Hatched bars wild-type, gray bars=arv1D. FIG. 1C, Subcellular sterol accumulation. Cell membrane preparations were subjected to subcellular fractionation. Lipid composition is presented as ratio of [^3H]acetate in sterol and [^14C]oleate in phospholipids (top panels). Hatched bars=wild-type, gray bars=arv1D. Note scale differences between the upper panels. Fractions were characterized with specific antibodies against the plasma membrane ATPase (Pma1p, provided by Amy Chang), and 100 kDa subunit of integral vacuolar membrane H^+ATPase (Vph1p, Molecular Probes). Bottom panels show densitometry analysis of western blots expressed as percentage of total arbitrary units (Pma1p; closed boxes, Vph1p; open triangles). The integral ER membrane protein, dolichol phosphate mannose synthase cofractionated with Vph1p.
Mutations in sterol trafficking genes may alter membrane sterol levels. arv1D cells are sensitive to nystatin (FIG. 1a), a polyene antibiotic that disrupts membranes in part by interaction with sterols^10. Nystatin partitioning into membranes is sensitive to both sterol organization and levels^10. […] Iodine staining of sterol mass following extraction and thin layer chromatography (TLC) analysis reflected these differences (not shown).

SMILES | polyene sensitivity of yeast strains deleted for the ARV1 gene (arv1Δ) | sensitivity of arv1D cells to nystatin (growth, FIG. 1a) (5-fold dilutions of cells grown three days on YEPD +/- 5 μg/ml nystatin, compared with wild-type)
C[C@@H]1[C@H](O)[C@@H](C)/C=C/C=C/C=C/C=C/C=C/C=C/C=C/[C@H](O[C@@H]2O[C@H](C)[C@@H](O)[C@H](N)[C@@H]2O)C[C@@H]2O[C@](O)(C[C@@H](O)C[C@@H](O)[C@H](O)CC[C@@H](O)C[C@@H](O)CC(=O)O[C@H]1C)C[C@H](O)[C@H]2C(=O)O [amphotericin B] | sensitive | –
C[C@@H]1[C@H](O)[C@@H](C)/C=C/C=C/CC/C=C/C=C/C=C/C=C/C(O[C@H]2O[C@H](C)[C@@H](O)[C@H](N)[C@@H]2O)CC2O[C@](O)(CC(O)C(O)CCC(O)CC(O)CC(O)CC(=O)O[C@H]1C)CC(O)C2C(=O)O (stereo partly shown) [nystatin] | sensitive | sensitive
CCCCC[C@@H](O)[C@H]1C(=O)O[C@H](C)[C@@H](O)/C=C/C=C/C=C/C=C/C=C(\C)[C@@H](O)C[C@H](O)C[C@H](O)C[C@H](O)C[C@H](O)C[C@H](O)C[C@@H]1O [filipin] | sensitive | –
